Assay [1] in a line: Inhibition of mouse GAT-2 expressed in HEK293 cells assessed as decrease in [3H]GABA uptake preincubated for 25 mins followed by [3H]GABA addition and measured after 10 mins by scintillation counting analysis.
Assay [2] in a line: Inhibition of mouse GAT-3 expressed in HEK293 cells assessed as decrease in [3H]GABA uptake preincubated for 25 mins followed by [3H]GABA addition and measured after 4 mins by scintillation counting analysis.

SMILES strings stand for the structures.

In the case of `O=C(O)C1CCCN(CCON=Cc2cc(F)ccc2-c2ccc(Cl)cc2Cl)C1` (stereo unspecified), the half-maximal inhibitory concentration (IC50) in assay [1] amounted to 17.8 µM. Take `O=C(O)C1CCCN(CCON=Cc2sccc2-c2ccc(Cl)cc2Cl)C1` (stereo unspecified): the half-maximal inhibitory concentration (IC50) in assay [2] amounted to 91.2 µM; in assay [1], 38 µM. Regarding `O=C(O)C1CCCN(CCON=Cc2ccccc2-c2ccc(Cl)cc2Cl)C1` (stereo unspecified), the 50% inhibitory concentration (IC50) in assay [1] was found to be 45.7 µM. With `O=C(O)[C@@H]1CCCN(CCON=Cc2ccccc2-c2ccc(Cl)cc2Cl)C1`, the IC50 in assay [2] is 57.5 µM; in assay [1], 42.7 µM.

The term IC50 denotes the concentration that gives 50% inhibition.
